# Assay results taken from patent US11464770B2, “Anticancer pharmaceutical composition” (NATIONAL CANCER CENTER, priority 2016, dated 2022).
# Read-outs that look alike come from different tables or passages of the source.
# Assays:
# [1] = test system: melanoma cell lines; test: Cell based assay, cell viability (CellTiter-Glo), melanoma cell lines; conditions: Homo sapiens; LOX-IMVI cell line
# Outline: (§1)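 Cell lines seeded, cultured 24 hours, then exposed to compound at final 0 to 2 μM. After a further 72 hours, viability measured by ATP-detection luminescence (CellTiter-Glo).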
# [2] = test system: RT4: human urinary bladder transitional cell papilloma; test: Cell based assay, cytotoxicity in RT4 papilloma cells (selectivity); conditions: Homo sapiens, RT-4; RT4 cells
# [3] = test system: cervical carcinoma cell lines; test: Cell based assay, cell viability (CellTiter-Glo), cervical carcinoma cell lines; conditions: Homo sapiens; HeLa cells
# [4] = test system: pancreatic cancer cell lines (e.g. MIA PaCa-2); test: Cell based assay, cell viability (CellTiter-Glo), pancreatic cancer cell lines; conditions: Homo sapiens
# Outline: as §1
# [5] = test system: bladder cancer cell lines; test: Cell based assay, cell viability (CellTiter-Glo), bladder cancer cell lines; conditions: 72 hours treatment, 0 to 2 μM, CellTiter-Glo
# Outline: as §1
# [6] = pancreatic cancer cell line AsPC-1, 72 hours, read-out: IC50, AsPC-1
# [7] = pancreatic cancer cell line BxPC-3, 72 hours, read-out: IC50, BxPC-3
# [8] = pancreatic cancer cell line CFPAC-1, 72 hours, read-out: IC50, CFPAC-1
# [9] = pancreatic cancer cell line Capan-1, 72 hours, read-out: IC50, Capan-1
# [10] = pancreatic cancer cell line Capan-2, 72 hours, read-out: IC50, Capan-2
# [11] = pancreatic cancer cell line MIA PaCa-2, 72 hours, read-out: IC50, MIA PaCa-2
# [12] = pancreatic cancer cell line PANC-1, 72 hours, read-out: IC50, PANC-1
# [13] = 5637 cells, read-out: IC50, bladder cancer cell line 5637
# [14] = Homo sapiens, T-24, T24 cells, read-out: IC50, bladder cancer cell line T24
# [15] = Homo sapiens, J82 cells, read-out: IC50, bladder cancer cell line J82
SMILES,IC50 [1] [nM],IC50 [2] [nM],IC50 [3] [nM],"IC50 [4, 6] [nM]","IC50 [4, 7] [nM]","IC50 [4, 8] [nM]","IC50 [4, 9] [nM]","IC50 [4, 10] [nM]","IC50 [4, 11] [nM]","IC50 [4, 12] [nM]","IC50 [5, 13] [nM]","IC50 [5, 14] [nM]","IC50 [5, 15] [nM]","IC50 ([5]; Homo sapiens, KU-19-19 cells, read-out: IC50, bladder cancer cell line KU-19-19) [nM]"
"CC(=O)c1c([S+]([O-])Cc2ccc(F)c(Cl)c2)[nH]c2c(Br)ccc(Cl)c2c1=O (stereo not shown) [Compound 31, 3-acetyl-8-bromo-5-chloro-2-((3-chloro-4-fluorobenzyl)sulfinyl)quinolin-4(1H)-one]",1110,> 10000,> 10000,> 2000,> 2000,> 10000,> 2000,> 2000,1180,> 2000,1230,1120,1380,
"CC(=O)c1c([S+]([O-])Cc2ccc(OC(F)(F)F)cc2)[nH]c2c(Br)ccc(Cl)c2c1=O (stereo not shown) [Compound 71, 3-acetyl-8-bromo-5-chloro-2-((4-(trifluoromethoxy)benzyl)sulfinyl)quinolin-4(1H)-one]",1410,> 10000,> 10000,> 2000,> 2000,> 10000,> 2000,> 2000,1650,> 2000,1510,1390,1980,
"CC(=O)c1c([S+]([O-])Cc2ccc(C#N)cc2)[nH]c2c(Br)ccc(Cl)c2c1=O (stereo not shown) [Compound 73, 4-(((3-acetyl-8-bromo-5-chloro-4-oxo-1,4-dihydroquinolin-2-yl)sulfinyl)methyl)benzonitrile]",1670,> 10000,> 10000,> 2000,> 2000,> 10000,> 2000,> 2000,1650,> 2000,> 2000,,> 2000,> 2000
"CC(=O)c1c([S+]([O-])Cc2cc(F)cc(S(F)(F)(F)(F)F)c2)[nH]c2c(Br)ccc(Cl)c2c1=O (stereo not shown) [Compound 76, 3-acetyl-8-bromo-5-chloro-2-((3-fluoro-5-(pentafluoro--sulfanyl)benzyl)sulfinyl)quinolin-4(1H)-one]",1370,> 10000,> 10000,> 2000,> 2000,> 10000,> 2000,> 2000,1550,> 2000,> 2000,1790,> 2000,
"CC(=O)c1c([S+]([O-])Cc2c(F)cccc2Cl)[nH]c2c(Br)ccc(Cl)c2c1=O (stereo not shown) [Compound 74, 3-acetyl-8-bromo-5-chloro-2-((2-chloro-6-fluorobenzyl)sulfinyl)quinolin-4(1H)-one]",1260,> 10000,> 10000,> 2000,> 2000,> 10000,> 2000,> 2000,1180,> 2000,1600,1070,> 2000,
"CC(=O)c1c([S+]([O-])Cc2ccc([S+]([O-])C(F)(F)F)cc2)[nH]c2c(Br)ccc(Cl)c2c1=O (stereo not shown) [Compound 64, 3-acetyl-8-bromo-5-chloro-2-((4-((trifluoromethyl)sulfinyl)benzyl)sulfinyl)quinolin-4(1H)-one]",1050,> 10000,> 10000,> 2000,> 2000,> 10000,> 2000,> 2000,1220,> 2000,1520,1040,1960,
"COc1cc(C[S+]([O-])c2[nH]c3c(Br)ccc(Cl)c3c(=O)c2C(C)=O)cc(OC)c1 (stereo not shown) [Compound 59, 3-acetyl-8-bromo-5-chloro-2-((3,5-dimethoxybenzyl)sulfinyl)quinolin-4(1H)-one]",1060,> 10000,> 10000,> 2000,> 2000,> 10000,> 2000,> 2000,1380,> 2000,> 2000,1110,> 2000,
"CC(=O)c1c([S+]([O-])Cc2cccc(F)c2)[nH]c2c(Br)ccc(Cl)c2c1=O (stereo not shown) [Compound 50, 3-acetyl-8-bromo-5-chloro-2-((3-fluorobenzyl)sulfinyl)quinolin-4(1H)-one]",1510,> 10000,> 10000,> 2000,> 2000,> 10000,> 2000,> 2000,1450,> 2000,1470,,> 2000,
"CC(=O)c1c([S+]([O-])Cc2cc(Cl)ccc2Cl)[nH]c2c(Br)ccc(Cl)c2c1=O (stereo not shown) [Compound 44, 3-acetyl-8-bromo-5-chloro-2-((2,5-dichlorobenzyl)sulfinyl)quinolin-4(1H)-one]",1640,> 10000,> 10000,> 2000,> 2000,> 10000,> 2000,> 2000,1230,> 2000,1350,920,2070,
"COc1cccc(C[S+]([O-])c2[nH]c3c(Br)ccc(Cl)c3c(=O)c2C(C)=O)c1 (stereo not shown) [Compound 55, 3-acetyl-8-bromo-5-chloro-2-((3-methoxybenzyl)sulfinyl)quinolin-4(1H)-one]",1620,> 10000,> 10000,> 2000,> 2000,> 10000,> 2000,> 2000,1690,> 2000,> 2000,1540,> 2000,
"CC(=O)c1c([S+]([O-])Cc2cc(C)on2)[nH]c2c(Br)ccc(Cl)c2c1=O (stereo not shown) [Compound 51, 3-acetyl-8-bromo-5-chloro-2-(((5-methylisoxazol-3-yl)methyl)sulfinyl)quinolin-4(1H)-one]",1460,> 10000,> 10000,> 2000,> 2000,> 10000,> 2000,> 2000,760,> 2000,1070,890,> 2000,
"CC(=O)c1c([S+]([O-])Cc2ccc(F)cc2F)[nH]c2c(Br)ccc(Cl)c2c1=O (stereo not shown) [Compound 29, 3-acetyl-8-bromo-5-chloro-2-((2,4-difluorobenzyl)sulfinyl)quinolin-4(1H)-one]",1240,> 10000,> 10000,> 2000,> 2000,> 10000,> 2000,> 2000,1190,> 2000,1330,1090,> 2000,
"CC(=O)c1c([S+]([O-])Cc2ccc(C(F)(F)F)cc2)[nH]c2c(Br)ccc(Cl)c2c1=O (stereo not shown) [Compound 70, 3-acetyl-8-bromo-5-chloro-2-((4-(trifluoromethyl)benzyl)sulfinyl)quinolin-4(1H)-one]",1190,> 10000,> 10000,> 2000,> 2000,> 10000,> 2000,> 2000,1440,> 2000,1730,1690,1940,
"CC(=O)c1c([S+]([O-])Cc2ccc(I)cc2)[nH]c2c(Cl)ccc(Cl)c2c1=O (stereo not shown) [Compound 83, 3-acetyl-5,8-dichloro-2-((4-iodobenzyl)sulfinyl)quinolin-4(1H)-one]",1570,> 10000,> 10000,> 2000,> 2000,> 10000,> 2000,> 2000,1440,> 2000,1370,1500,> 2000,
